Results published in ChEMBL document CHEMBL1201862, “PubChem BioAssay data set” (2004).
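Each compound was tested at five concentrations against cells in 96-well plates for 48 hours. GI50 = concentration required for 50% inhibition of growth.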 The source made the active and inactive calls. No stated cut-off is given here; in the data, active = GI50 up to about 1.1 µM and inactive = higher.

Key:
Experiment in all cases: NCI-60 cell line screen, 48 h
OVCAR-3 = tested on: OVCAR-3
DU-145 = tested on: DU-145
OVCAR-8 = tested on: OVCAR-8
SK-MEL-28 = tested on: SK-MEL-28
T47D = tested on: T47D
MCF7 = tested on: MCF7
A498 = tested on: A498
PC-3 = tested on: PC-3
HOP-92 = tested on: HOP-92
NCI-H23 = tested on: NCI-H23
UACC-62 = tested on: UACC-62
Malme-3M = tested on: Malme-3M
Hs-578T = tested on: Hs-578T
TK-10 = tested on: TK-10
MDA-N = tested on: MDA-N
MDA-MB-435 = tested on: MDA-MB-435
SK-OV-3 = tested on: SK-OV-3
K562 = tested on: K562
786-0 = tested on: 786-0
HCC 2998 = tested on: HCC 2998
ACHN = tested on: ACHN
NCI/ADR-RES = tested on: NCI/ADR-RES
SR = tested on: SR
HCT-116 = tested on: HCT-116
SK-MEL-2 = tested on: SK-MEL-2
KM12 = tested on: KM12
HOP-62 = tested on: HOP-62
NCI-H226 = tested on: NCI-H226
M14 = tested on: M14
BT-549 = tested on: BT-549
SF-295 = tested on: SF-295
SN12C = tested on: SN12C
RXF 393 = tested on: RXF 393
EKVX = tested on: EKVX
NCI-H522 = tested on: NCI-H522
A549 = tested on: A549
COLO 205 = tested on: COLO 205
LOX IMVI = tested on: LOX IMVI
MOLT-4 = tested on: MOLT-4
IGROV-1 = tested on: IGROV-1
HCT-15 = tested on: HCT-15
UACC-257 = tested on: UACC-257
SF-539 = tested on: SF-539
NCI-H460 = tested on: NCI-H460
CCRF-CEM = tested on: CCRF-CEM
CAKI-1 = tested on: CAKI-1
SW-620 = tested on: SW-620
HT-29 = tested on: HT-29
HL-60 = tested on: HL-60
U-251 = tested on: U-251
SK-MEL-5 = tested on: SK-MEL-5
SF-268 = tested on: SF-268
OVCAR-5 = tested on: OVCAR-5
RPMI-8226 = tested on: RPMI-8226
OVCAR-4 = tested on: OVCAR-4
MDA-MB-231 = tested on: MDA-MB-231
SNB-19 = tested on: SNB-19
SNB-75 = tested on: SNB-75
UO-31 = tested on: UO-31

Q: Which results are given for `COc1cc2c(cc1OC)C(=O)N(c1ccc(OCCN3CCCC3)cc1)C2=O`?
A: GI50 (OVCAR-3): > 100 µM (inactive); GI50 (DU-145): > 100 µM (inactive); GI50 (OVCAR-8): > 100 µM (inactive); GI50 (SK-MEL-28): > 100 µM (inactive); GI50 (T47D): > 100 µM (inactive); GI50 (MCF7): > 100 µM (inactive); GI50 (A498): > 100 µM (inactive); GI50 (PC-3): > 100 µM (inactive); GI50 (HOP-92): > 100 µM (inactive); GI50 (NCI-H23): > 100 µM (inactive); GI50 (UACC-62): > 100 µM (inactive); GI50 (Malme-3M): 20.8 µM (inactive); GI50 (Hs-578T): > 100 µM (inactive); GI50 (TK-10): > 100 µM (inactive); GI50 (MDA-N): > 100 µM (inactive); GI50 (MDA-MB-435): > 100 µM (inactive); GI50 (SK-OV-3): > 100 µM (inactive); GI50 (K562): > 100 µM (inactive); GI50 (786-0): > 100 µM (inactive); GI50 (HCC 2998): > 100 µM (inactive); GI50 (ACHN): > 100 µM (inactive); GI50 (NCI/ADR-RES): > 100 µM (inactive); GI50 (SR): > 100 µM (inactive); GI50 (HCT-116): > 100 µM (inactive); GI50 (SK-MEL-2): > 100 µM (inactive); GI50 (KM12): > 100 µM (inactive); GI50 (HOP-62): > 100 µM (inactive); GI50 (NCI-H226): > 100 µM (inactive); GI50 (M14): > 100 µM (inactive); GI50 (BT-549): > 100 µM (inactive); GI50 (SF-295): > 100 µM (inactive); GI50 (SN12C): > 100 µM (inactive); GI50 (RXF 393): > 100 µM (inactive); GI50 (EKVX): > 100 µM (inactive); GI50 (NCI-H522): > 100 µM (inactive); GI50 (A549): > 100 µM (inactive); GI50 (COLO 205): > 100 µM (inactive); GI50 (LOX IMVI): > 100 µM (inactive); GI50 (MOLT-4): > 100 µM (inactive); GI50 (IGROV-1): > 100 µM (inactive); GI50 (HCT-15): > 100 µM; GI50 (UACC-257): > 100 µM (inactive); GI50 (SF-539): > 100 µM (inactive); GI50 (NCI-H460): > 100 µM (inactive); GI50 (CCRF-CEM): > 100 µM (inactive); GI50 (CAKI-1): > 100 µM (inactive); GI50 (SW-620): > 100 µM (inactive); GI50 (HT-29): > 100 µM (inactive); GI50 (HL-60): > 100 µM (inactive); GI50 (U-251): > 100 µM (inactive); GI50 (SK-MEL-5): > 100 µM (inactive); GI50 (SF-268): > 100 µM (inactive); GI50 (OVCAR-5): > 100 µM (inactive); GI50 (RPMI-8226): > 100 µM (inactive); GI50 (OVCAR-4): > 100 µM (inactive); GI50 (MDA-MB-231): > 100 µM (inactive); GI50 (SNB-19): > 100 µM (inactive)

Q: For `C=CCn1c(-c2ccc(-c3cs/c(=N\N=O)n3CC=C)cc2)cs/c1=N\N=O`, which GI50 (OVCAR-3) is on record?
A: > 100 µM (inactive)

Q: What about the GI50 (DU-145) of the same compound?
A: > 100 µM (inactive)

Q: And the GI50 (OVCAR-8)?
A: 88.1 µM (inactive)

Q: And the GI50 (SK-MEL-28)?
A: > 100 µM (inactive)

Q: And the GI50 (T47D)?
A: > 100 µM (inactive)

Q: And the GI50 (MCF7)?
A: > 100 µM (inactive)

Q: And the GI50 (A498)?
A: > 100 µM (inactive)

Q: What about the GI50 (PC-3) of the same compound?
A: > 100 µM (inactive)

Q: What about the GI50 (HOP-92) of the same compound?
A: > 100 µM (inactive)

Q: And the GI50 (NCI-H23)?
A: > 100 µM (inactive)

Q: What about the GI50 (UACC-62) of the same compound?
A: > 100 µM (inactive)

Q: And the GI50 (Malme-3M)?
A: > 100 µM (inactive)

Q: And the GI50 (Hs-578T)?
A: 45.9 µM (inactive)

Q: What about the GI50 (TK-10) of the same compound?
A: > 100 µM (inactive)

Q: And the GI50 (MDA-N)?
A: > 100 µM (inactive)

Q: And the GI50 (MDA-MB-435)?
A: > 100 µM (inactive)

Q: What about the GI50 (SK-OV-3) of the same compound?
A: 40.7 µM (inactive)

Q: What about the GI50 (K562) of the same compound?
A: > 100 µM (inactive)

Q: And the GI50 (786-0)?
A: 62.5 µM (inactive)

Q: What about the GI50 (HCC 2998) of the same compound?
A: > 100 µM (inactive)

Q: And the GI50 (ACHN)?
A: > 100 µM (inactive)

Q: And the GI50 (NCI/ADR-RES)?
A: > 100 µM (inactive)

Q: What about the GI50 (SR) of the same compound?
A: > 100 µM (inactive)

Q: And the GI50 (SNB-75)?
A: 20.9 µM (inactive)

Q: And the GI50 (HCT-116)?
A: 79.1 µM (inactive)

Q: What about the GI50 (SK-MEL-2) of the same compound?
A: > 100 µM (inactive)

Q: What about the GI50 (KM12) of the same compound?
A: > 100 µM (inactive)

Q: What about the GI50 (HOP-62) of the same compound?
A: 64.3 µM (inactive)

Q: What about the GI50 (NCI-H226) of the same compound?
A: > 100 µM (inactive)

Q: What about the GI50 (M14) of the same compound?
A: > 100 µM (inactive)

Q: What about the GI50 (BT-549) of the same compound?
A: > 100 µM (inactive)

Q: What about the GI50 (SF-295) of the same compound?
A: 91 µM (inactive)

Q: And the GI50 (SN12C)?
A: 86.9 µM (inactive)

Q: And the GI50 (RXF 393)?
A: 19.1 µM (inactive)

Q: What about the GI50 (EKVX) of the same compound?
A: > 100 µM (inactive)

Q: What about the GI50 (NCI-H522) of the same compound?
A: 83.2 µM (inactive)

Q: And the GI50 (A549)?
A: > 100 µM (inactive)

Q: And the GI50 (COLO 205)?
A: > 100 µM (inactive)

Q: What about the GI50 (LOX IMVI) of the same compound?
A: > 100 µM (inactive)

Q: And the GI50 (UO-31)?
A: > 100 µM (inactive)

Q: And the GI50 (MOLT-4)?
A: > 100 µM (inactive)

Q: And the GI50 (IGROV-1)?
A: > 100 µM (inactive)

Q: What about the GI50 (HCT-15) of the same compound?
A: > 100 µM

Q: What about the GI50 (UACC-257) of the same compound?
A: > 100 µM (inactive)

Q: And the GI50 (SF-539)?
A: 94.4 µM (inactive)

Q: What about the GI50 (NCI-H460) of the same compound?
A: > 100 µM (inactive)

Q: What about the GI50 (CCRF-CEM) of the same compound?
A: > 100 µM (inactive)

Q: What about the GI50 (CAKI-1) of the same compound?
A: > 100 µM (inactive)

Q: What about the GI50 (SW-620) of the same compound?
A: > 100 µM (inactive)

Q: And the GI50 (HT-29)?
A: > 100 µM (inactive)

Q: And the GI50 (HL-60)?
A: > 100 µM (inactive)

Q: And the GI50 (U-251)?
A: 61.1 µM (inactive)

Q: And the GI50 (SK-MEL-5)?
A: > 100 µM (inactive)

Q: What about the GI50 (SF-268) of the same compound?
A: > 100 µM (inactive)

Q: What about the GI50 (OVCAR-5) of the same compound?
A: > 100 µM (inactive)

Q: What about the GI50 (OVCAR-4) of the same compound?
A: 22.2 µM (inactive)

Q: What about the GI50 (MDA-MB-231) of the same compound?
A: 23.4 µM (inactive)

Q: What about the GI50 (SNB-19) of the same compound?
A: > 100 µM (inactive)
